This note sets out measurements from ChEMBL document CHEMBL5550161, “Discovery of novel small molecules targeting the USP21/JAK2/STAT3 axis for the treatment of triple-negative breast cancer” (Eur J Med Chem, 2024).

For assay [1], the target named is Tyrosine-protein kinase JAK2 (Homo sapiens, UniProt O60674). Description: Inhibition of JAK2 (unknown origin).
The subject of another assay is MCF7. Description: Anti-proliferative activity against human MCF7 cells assessed as cell growth inhibition incubated for 72 hrs by MTT assay. The assay is classed as functional, cell-based. The following applies: MCF7, 72 h. (In general: Tetrazolium assays rely on reduction of a dye to a coloured formazan, in cell work by metabolically active cells.)
The subject of the next assay is MDA-MB-231. Description: Anti-proliferative activity against human MDA-MB-231 cells assessed as cell growth inhibition incubated for 72 hrs by MTT assay. The settings on record: MDA-MB-231, 72 h. The assay is classed as functional, cell-based.
The test system of a further assay is Hs-578T. Description: Anti-proliferative activity against human Hs-578T cells assessed as cell growth inhibition incubated for 72 hrs by MTT assay. The assay is classed as functional, cell-based.
Assay [2] has as its system HCC1806. Description: Anti-proliferative activity against human HCC1806 cells assessed as cell growth inhibition incubated for 72 hrs by MTT assay. It counts as functional, cell-based. The following applies: HCC1806, 72 h.
Assay [3] deals with HCC1806. Kind of assay: Antitumor activity against human HCC1806 cells xenografted in Balb/c mouse assessed as reduction in tumor weight at 2.5 mg/kg, ip administered once a week measured after 14 days. The following applies: time 14.0 day. The assay is classed as functional, organism-based. On the technique in general: A xenograft is tissue or cells of one species grown in another, often human tumour cells in immunodeficient mice.

In assay [4] the test system is HCC1806. Description: Antitumor activity against human HCC1806 cells xenografted in Balb/c mouse at 2.5 mg/kg, ip administered once a week measured after 14 days relative to control. It counts as functional. The settings on record: HCC1806, 336 h, time 14 day, read-out: TGI.

Activity calls are given as the source filed them. No cut-off for these calls is given here. Some results are limits rather than exact numbers.

Chain of Tyrosine-protein kinase JAK2 (O60674 whole entry): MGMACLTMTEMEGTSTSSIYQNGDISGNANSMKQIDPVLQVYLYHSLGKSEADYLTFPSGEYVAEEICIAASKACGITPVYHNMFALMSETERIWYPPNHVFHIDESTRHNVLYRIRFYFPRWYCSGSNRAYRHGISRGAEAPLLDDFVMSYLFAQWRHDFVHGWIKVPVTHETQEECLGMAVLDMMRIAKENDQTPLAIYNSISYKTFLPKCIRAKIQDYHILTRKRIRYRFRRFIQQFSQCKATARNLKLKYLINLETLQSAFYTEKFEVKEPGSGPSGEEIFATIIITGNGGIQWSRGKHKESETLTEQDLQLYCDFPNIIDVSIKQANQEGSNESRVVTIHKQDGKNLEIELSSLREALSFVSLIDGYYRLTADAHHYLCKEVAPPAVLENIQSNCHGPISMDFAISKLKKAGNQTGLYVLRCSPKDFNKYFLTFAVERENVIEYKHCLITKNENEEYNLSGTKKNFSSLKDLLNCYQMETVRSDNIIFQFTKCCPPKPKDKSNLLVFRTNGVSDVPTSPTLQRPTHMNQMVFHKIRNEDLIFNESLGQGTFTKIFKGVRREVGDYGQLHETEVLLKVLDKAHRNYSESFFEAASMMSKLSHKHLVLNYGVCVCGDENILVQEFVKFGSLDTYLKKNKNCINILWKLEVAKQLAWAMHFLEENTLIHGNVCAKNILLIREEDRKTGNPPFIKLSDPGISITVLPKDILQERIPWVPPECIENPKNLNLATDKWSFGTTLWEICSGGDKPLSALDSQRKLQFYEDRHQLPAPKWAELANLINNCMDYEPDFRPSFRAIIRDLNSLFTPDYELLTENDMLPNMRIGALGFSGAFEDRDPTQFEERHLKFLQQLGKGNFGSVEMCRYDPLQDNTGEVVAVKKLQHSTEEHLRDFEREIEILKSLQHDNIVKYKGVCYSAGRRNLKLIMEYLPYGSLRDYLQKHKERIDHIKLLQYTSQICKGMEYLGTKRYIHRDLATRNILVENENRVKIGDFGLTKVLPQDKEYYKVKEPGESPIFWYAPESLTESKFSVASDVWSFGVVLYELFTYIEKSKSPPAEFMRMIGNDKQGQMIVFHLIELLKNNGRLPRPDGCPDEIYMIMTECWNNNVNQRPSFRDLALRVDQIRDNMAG

As for `COc1cc(Nc2ccccc2C(=O)NCCc2c[nH]c3ccccc23)cc(OC)c1OC`, the IC50 – broadly, the concentration needed to halve the response being measured – is over 10 µM in assay [1]; over 100 µM with MCF7; 99.7 µM in the assay on MDA-MB-231; 2.18 µM in the assay with Hs-578T; 2.41 µM with HCC1806 [2].

`COc1cccc2c1C(=O)c1c(O)c3c(c(O)c1C2=O)C[C@@](O)(C(=O)CO)C[C@@H]3O[C@H]1C[C@H](N)[C@H](O)[C@H](C)O1` [DOXORUBICIN]: the IC50 with MDA-MB-231 was 0.21 µM; in the assay on Hs-578T, 1.07 µM; in the assay on HCC1806 [2], 0.34 µM. Besides, the outcome with HCC1806 [3] was Active. The inhibition in vivo at 2.5 mg/kg with HCC1806 [4] is 43.2%.

For `COc1cc(Nc2cc(F)ccc2C(=O)NCCc2c[nH]c3ccccc23)cc(OC)c1OC`, the IC50 with MCF7 was determined as 1.44 µM; in the assay on MDA-MB-231 it was 1.03 µM; in the assay on Hs-578T, 1.46 µM; in the assay on HCC1806 [2], 2.4 µM.

For `COc1cc(Nc2cc(F)c(C)cc2C(=O)NCCc2c[nH]c3ccccc23)cc(OC)c1OC`, the IC50 in the assay with MCF7 is 11 µM; in the assay with MDA-MB-231 it was 38.6 µM; with Hs-578T it was over 100 µM; in the assay on HCC1806 [2] it was 20.2 µM.

`COc1cc(Nc2cccc(Cl)c2C(=O)NCCc2c[nH]c3ccccc23)cc(OC)c1OC`: the IC50 was 41.5 µM in the assay with MCF7, 95.1 µM in the assay on MDA-MB-231, over 100 µM in the assay on Hs-578T and over 100 µM in the assay with HCC1806 [2].

Turning to `COc1ccc(Nc2cc(OC)c(OC)c(OC)c2)c(C(=O)NCCc2c[nH]c3ccccc23)c1`, the IC50 in the assay on MCF7 is over 100 µM; in the assay with MDA-MB-231 it was 82.1 µM; with Hs-578T, over 100 µM; in the assay on HCC1806 [2], 29.9 µM.

For `COc1cc(Nc2c(C(=O)NCCc3c[nH]c4ccccc34)cccc2[N+](=O)[O-])cc(OC)c1OC`, the IC50 is over 100 µM in the assay on MCF7, 31.3 µM in the assay with MDA-MB-231, over 100 µM in the assay with Hs-578T and over 100 µM in the assay on HCC1806 [2].

In the case of `COc1cc(Nc2cc(F)ccc2C(=O)NCCc2c[nH]c3cccc(Br)c23)cc(OC)c1OC`, the IC50 in the assay with MCF7 was found to be 4.37 µM; in the assay on MDA-MB-231, 3.55 µM; with Hs-578T, 7.97 µM; with HCC1806 [2] it was 2.16 µM.

As to `COc1cc(Nc2cc(F)ccc2C(=O)NCCc2c[nH]c3cccc(Cl)c23)cc(OC)c1OC`, the IC50 was 3.26 µM with MCF7, 1.99 µM with MDA-MB-231, 3.02 µM in the assay on Hs-578T and 1.82 µM with HCC1806 [2].

`COc1cc(Nc2c(C(=O)NCCc3c[nH]c4ccccc34)ccc(F)c2F)cc(OC)c1OC`: the IC50 in the assay with MCF7 is 78 µM; with MDA-MB-231 it was 85.3 µM; in the assay on Hs-578T, over 100 µM; with HCC1806 [2], 90 µM.

Take `COc1cc(Nc2cccc(C(F)(F)F)c2C(=O)NCCc2c[nH]c3ccccc23)cc(OC)c1OC`: the IC50 was 67 µM with MCF7, over 100 µM in the assay with MDA-MB-231, over 100 µM with Hs-578T and over 100 µM with HCC1806 [2].

Take `COc1cc(Nc2cc(F)ccc2C(=O)NCCc2c[nH]c3ccc(C)cc23)cc(OC)c1OC`: the IC50 amounted to 8.77 µM with MCF7, 2.79 µM in the assay on MDA-MB-231, 55.5 µM with Hs-578T and 7.81 µM in the assay on HCC1806 [2].
